Assay results reported in US20170190671A1, “BIS(ARYL)CATECHOL DERIVATIVES AS HERBICIDES” (E I DU PONT DE NEMOURS AND COMPANY, priority 2014, published 2017).

Experiments:
Assay in all cases: Test C postemergence
Format in all cases: in vivo
[1] = system: blackgrass (Alopecurus myosuroides); conditions: Alopecurus myosuroides, post-emergence, 336 h, Postemergence, scale 0 to 100, read-out: Plant response rating, Blackgrass
Method in brief: (§1)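 Greenhouse test, preemergence on seeded soil or postemergence on 1- to 4-leaf plants. Response is a visual 0-100 rating versus controls, taken 13-15 days after treatment.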

[2] = system: velvetleaf (Abutilon theophrasti); conditions: Abutilon theophrasti, post-emergence, Postemergence, scale 0 to 100, read-out: Plant response rating, Velvetleaf
Method in brief: as §1

[3] = system: oilseed rape (Brassica napus); conditions: Brassica napus, post-emergence, Postemergence, scale 0 to 100, read-out: Plant response rating, Oilseed Rape
Method in brief: as §1

[4] = system: Italian ryegrass (Lolium multiflorum); conditions: Lolium multiflorum, post-emergence, 336 h, Postemergence, scale 0 to 100, read-out: Plant response rating, Ryegrass, Italian
Method in brief: as §1

[5] = system: ragweed (common ragweed, Ambrosia elatior); conditions: Ambrosia artemisiifolia, post-emergence, 336 h, Postemergence, scale 0 to 100, read-out: Plant response rating, Ragweed
Method in brief: as §1

[6] = system: johnsongrass (Sorghum halepense); conditions: Sorghum halepense, post-emergence, 336 h, Postemergence, scale 0 to 100, read-out: Plant response rating, Johnsongrass
Method in brief: as §1

[7] = system: lambsquarters (Chenopodium album); conditions: Chenopodium album, post-emergence, 336 h, Postemergence, scale 0 to 100, read-out: Plant response rating, Lambsquarters
Method in brief: as §1

[8] = system: barnyardgrass (Echinochloa crus-galli); conditions: Echinochloa crus-galli, post-emergence, Postemergence, scale 0 to 100, read-out: Plant response rating, Barnyardgrass
Method in brief: as §1

soybean (Glycine max) = conditions: Glycine max, post-emergence, Postemergence, scale 0 to 100, read-out: Plant response rating, Soybean
Method in brief: as §1

[9] = system: large (Lg) crabgrass (Digitaria sanguinalis); conditions: Digitaria sanguinalis, post-emergence, 336 h, Postemergence, scale 0 to 100, read-out: Plant response rating, Crabgrass, Large
Method in brief: as §1

[10] = system: winter wheat (Triticum aestivum); conditions: Triticum aestivum, post-emergence, 336 h, Postemergence, scale 0 to 100, read-out: Plant response rating, Wheat
Method in brief: as §1

corn (Zea mays) = conditions: Zea mays, post-emergence, 336 h, Postemergence, scale 0 to 100
Method in brief: as §1

[11] = system: morningglory (Ipomoea coccinea); conditions: Ipomoea, post-emergence, 336 h, Postemergence, scale 0 to 100, read-out: Plant response rating, Morningglory
Method in brief: as §1

[12] = system: giant foxtail (Setaria faberii); conditions: Setaria faberi, post-emergence, 336 h, Postemergence, scale 0 to 100, read-out: Plant response rating, Foxtail, Giant
Method in brief: as §1

FC(F)c1cccc(Oc2ncc(Cl)cn2)c1Oc1ncc(Cl)cn1 [Compound 46, 2,2′-[[3-(difluoromethyl)-1,2-phenylene]bis(oxy)]bis[5-chloropyrimidine]] showed a pest or weed control at 16 g/ha ([1]; 16 g ai/ha) of 0%, a pest or weed control at 31 g/ha ([1]; 31 g ai/ha) of 0% and a pest or weed control at 62 g/ha ([1]; 62 g ai/ha) of 0%. The pest or weed control at 125 g/ha ([1]; 125 g ai/ha) was 5%, the pest or weed control at 31 g/ha ([2]; 31 g ai/ha) was 25% and the pest or weed control at 62 g/ha ([2]; 62 g ai/ha) was 55%. The pest or weed control at 125 g/ha ([2]; 125 g ai/ha) was 65%, the plant injury at 31 g/ha ([3]; 31 g ai/ha) was 30% and the plant injury at 62 g/ha ([3]; 62 g ai/ha) was 50%. For the same molecule, the plant injury at 125 g/ha ([3]; 125 g ai/ha) was 65%, the pest or weed control at 31 g/ha ([4]; 31 g ai/ha) was 5% and the pest or weed control at 62 g/ha ([4]; 62 g ai/ha) was 5%. For the same molecule, the pest or weed control at 125 g/ha ([4]; 125 g ai/ha) was 10%, the pest or weed control at 31 g/ha ([5]; 31 g ai/ha) was 50% and the pest or weed control at 62 g/ha ([5]; 62 g ai/ha) was 65%. The pest or weed control at 125 g/ha ([5]; 125 g ai/ha) was 95%, the pest or weed control at 16 g/ha ([6]; 16 g ai/ha) was 5% and the pest or weed control at 31 g/ha ([6]; 31 g ai/ha) was 10%. The pest or weed control at 62 g/ha ([6]; 62 g ai/ha) was 5%, the pest or weed control at 125 g/ha ([6]; 125 g ai/ha) was 5% and the pest or weed control at 16 g/ha ([7]; 16 g ai/ha) was 55%. For the same molecule, the pest or weed control at 31 g/ha ([7]; 31 g ai/ha) was 70%, the pest or weed control at 62 g/ha ([7]; 62 g ai/ha) was 85% and the pest or weed control at 125 g/ha ([7]; 125 g ai/ha) was 98%. The pest or weed control at 16 g/ha ([8]; 16 g ai/ha) was 0%, the pest or weed control at 31 g/ha ([8]; 31 g ai/ha) was 5% and the pest or weed control at 62 g/ha ([8]; 62 g ai/ha) was 5%. It also gave a pest or weed control at 125 g/ha ([8]; 125 g ai/ha) of 5%, a plant injury at 31 g/ha (soybean (Glycine max); 31 g ai/ha) of 65% and a plant injury at 62 g/ha (soybean (Glycine max); 62 g ai/ha) of 75%. It also gave a plant injury at 125 g/ha (soybean (Glycine max); 125 g ai/ha) of 80%, a pest or weed control at 16 g/ha ([9]; 16 g ai/ha) of 5% and a pest or weed control at 31 g/ha ([9]; 31 g ai/ha) of 5%. For the same molecule, the pest or weed control at 62 g/ha ([9]; 62 g ai/ha) was 10%, the pest or weed control at 125 g/ha ([9]; 125 g ai/ha) was 10% and the plant injury at 31 g/ha ([10]; 31 g ai/ha) was 5%. For the same molecule, the plant injury at 62 g/ha ([10]; 62 g ai/ha) was 5%, the plant injury at 125 g/ha ([10]; 125 g ai/ha) was 10% and the Corn plant response rating (crop injury, 0 = no effect, 100 = complete kill) at 16 g/ha (corn (Zea mays); 16 g ai/ha) was 5%. The Corn plant response rating (crop injury, 0 = no effect, 100 = complete kill) at 31 g/ha (corn (Zea mays); 31 g ai/ha) was 5%, the Corn plant response rating (crop injury, 0 = no effect, 100 = complete kill) at 62 g/ha (corn (Zea mays); 62 g ai/ha) was 5% and the Corn plant response rating (crop injury, 0 = no effect, 100 = complete kill) at 125 g/ha (corn (Zea mays); 125 g ai/ha) was 10%. The pest or weed control at 31 g/ha ([11]; 31 g ai/ha) was 80%, the pest or weed control at 62 g/ha ([11]; 62 g ai/ha) was 85% and the pest or weed control at 125 g/ha ([11]; 125 g ai/ha) was 90%. It also gave a pest or weed control at 16 g/ha ([12]; 16 g ai/ha) of 35%, a pest or weed control at 31 g/ha ([12]; 31 g ai/ha) of 20% and a pest or weed control at 62 g/ha ([12]; 62 g ai/ha) of 50%. The pest or weed control at 125 g/ha ([12]; 125 g ai/ha) was 25%.
